13 compounds from US5206234A, “Benzolactam analogs as antagonists of CCK” (priority 1991, dated 1993) can be followed below.

One assay addresses T1, CCK receptor (Pancreas) (Rattus norvegicus, UniProt P30551).
T1 construct: The whole pancreas was dissected free of fat tissue and was homogenized; from tissue; host or cells: pancreas membranes of male Sprague-Dawley rats
T1 sequence (P30551 1-444): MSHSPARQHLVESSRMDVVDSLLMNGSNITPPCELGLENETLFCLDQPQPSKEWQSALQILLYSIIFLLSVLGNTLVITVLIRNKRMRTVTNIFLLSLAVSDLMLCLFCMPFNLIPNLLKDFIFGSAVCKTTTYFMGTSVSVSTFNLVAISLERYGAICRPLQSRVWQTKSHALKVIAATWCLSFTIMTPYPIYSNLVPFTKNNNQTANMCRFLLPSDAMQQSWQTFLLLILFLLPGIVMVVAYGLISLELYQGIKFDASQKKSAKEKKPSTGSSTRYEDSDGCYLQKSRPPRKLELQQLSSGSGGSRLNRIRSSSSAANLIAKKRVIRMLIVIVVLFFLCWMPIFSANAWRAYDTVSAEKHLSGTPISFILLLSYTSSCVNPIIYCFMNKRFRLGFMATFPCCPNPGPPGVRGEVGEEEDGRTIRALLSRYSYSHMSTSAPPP
In words: CCK Receptor Binding (Pancreas), inhibition of 125I-CCK-33 binding. Set-up: species or system rat (Male Sprague-Dawley). To be noted: for IC50: 125I-CCK-33, rat pancreas membranes; for Effect on the 125I-CCK receptor binding assay: added as protease inhibitors. As for the experimental part: CCK-33 was radiolabeled with ^125 I-Bolton Hunter reagent (2000 Ci/mmole) as described by Sankara et al. (J. Biol. Chem. 254: 9349-9351, 1979). Receptor binding was performed according to Innis and Snyder (Proc. Natl. Acad. Sci. 77, 6917-6921, 1980) with the minor modification of adding the additional protease inhibitors, phenylmethane sulfonyl fluoride and o-phenanthroline. The latter two compounds have no effect on the ^125 I-CCK receptor binding assay.
Male Sprague-Dawley rats (200-350 g) were sacrificed by decapitation. The whole pancreas was dissected free of fat tissue and was homogenized in 20 volumes of ice-cold 50 mM Tris HCl (pH 7.7 at 25° C.) with a Brinkmann Polytron PT 10. The homogenates were centrifuged at 48,000 g for 10 min. Pellets were resuspended in Tris Buffer, centrifuged as above and resuspended in 200 volumes of binding assay buffer (50 mM Tris HCl, pH 7.7 at 25° C., 5 mM dithiothrietol, 0.1 mM bacitracin, 1.2 mM phenylmethane sulfonyl fluoride and 0.5 mM o-phenanthroline). […] All assays were run in duplicate or triplicate. The reaction mixtures were incubated at 37° C. for 30 minutes and centrifuged in a Beckman Microfuge (4 minutes) immediately after adding 1 ml of ice-cold incubation buffer. The supernatant was aspirated and discarded, pellets were counted with a Beckman gamma 5000. For Scatchard analysis (Ann. N.Y. Acad. Sci. 51: 660, 1949), ^125 I-CCK-33 was progressively diluted with increasing concentrations of CCK-33.
A Ki value (dissociation constant of inhibitor) of the compounds of Formula I was estimated.

Assay [1] has as its target T2, CCK receptor (Brain, cerebral cortex) (Cavia porcellus, UniProt H0VZC5).
T2 construct: Cerebral cortex was dissected and used as a receptor source; from tissue; host or cells: cerebral cortex membranes of male Hartley guinea pigs
T2 sequence (H0VZC5 1-426): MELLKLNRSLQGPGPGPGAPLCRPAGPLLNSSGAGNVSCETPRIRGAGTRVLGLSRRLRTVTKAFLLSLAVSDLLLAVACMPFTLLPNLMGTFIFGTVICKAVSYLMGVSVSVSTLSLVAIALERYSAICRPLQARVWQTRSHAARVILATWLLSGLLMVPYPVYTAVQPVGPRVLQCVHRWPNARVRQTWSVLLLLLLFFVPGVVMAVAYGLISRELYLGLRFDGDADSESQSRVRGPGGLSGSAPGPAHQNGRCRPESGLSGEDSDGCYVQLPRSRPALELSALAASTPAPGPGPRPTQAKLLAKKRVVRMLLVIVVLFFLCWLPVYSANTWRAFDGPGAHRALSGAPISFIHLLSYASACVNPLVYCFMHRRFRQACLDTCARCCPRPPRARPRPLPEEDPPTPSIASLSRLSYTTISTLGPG
The experiment in a line: CCK Receptor Binding (Brain), inhibition of 125I-CCK-33 binding. Set-up: species or system guinea pig (Male Hartley). Particulars: head prints ^25 I-CCK; guinea pig cerebral cortex. As for the experimental part:
CCK-33 was radiolabeled and the binding was performed according to the description for the pancreas method with modifications according to Saito et al., J. Neurochem. 37:483-490, 1981.
Male Hartley guinea pigs (300-500 g) were sacrificed by decapitation and the brains were removed and placed in ice-cold 50 mM Tris HCl plus 7.58 g/l Trizma-7.4 (pH 7.4 at 25° C.). Cerebral cortex was dissected and used as a receptor source. Each gram of fresh guinea pig brain tissue was homogenized in 10 ml of Tris/Trizma buffer with a Brinkman polytron PT-10. The homogenates were centrifuged at 42,000 g for 15 minutes. Pellets were resuspended in Tris Buffer, centrifuged as above and resuspended in 200 volumes of binding assay buffer (10 mM N-2-hydroxyethyl-piperazine-N'-2-ethane sulfonic acid (HEPES), 5 mM MgCl2, 0.25 mg/ml bacitracin, 1 mM ethylene glycol-bis-(β-aminoethylether-N,N'-tetraacetic acid) (EGTA), and 0.4% bovine serum albumin (BSA)). […] All assays were run in duplicate or triplicate. The reaction mixtures were incubated at 25° C. for 2 hours and centrifuged in a Beckman Microfuge (4 minutes) immediately after adding 1 ml of ice-cold incubation buffer. The supernatant was aspirated and discarded, pellets were counted with a Beckman gamma 5000.

Assay [2] deals with T3, Gastrin receptor (Gastric Glands) (Cavia porcellus, UniProt H0VZC5).
T3 construct: from tissue; host or cells: gastric mucosal glands of male Hartley guinea pigs
T3 sequence (H0VZC5 1-426): T2 sequence (H0VZC5 1-426)
The experiment in a line: Gastrin Receptor Binding in Guinea Pig Gastric Glands. Also noted: species or system guinea pig (male Hartley). To be noted: head prints ^25 I-Gastrin, read-out: Receptor binding IC50, 125I-Gastrin Gastric Glands. As to the method:
Guinea pig gastric mucosal glands were prepared by the procedure of Berglingh and Obrink Acta Physiol. Scand. 96: 150 (1976) with a slight modification according to Praissman et al. C. J. Receptor Res. 3: (1983). Gastric mucosa from guinea pigs (300-500 g body weight, male Hartley) were washed thoroughly and minced with fine scissors in standard buffer consisting of the following: 130 mM NaCl, 12 mM NaHCO3, 3 mM NaH2 PO4, 3 mM Na2 HPO4, 3 mM K2 HPO4, 2 mM MgSO4, 1 mM CaCl2, 5 mM glucose and 4 mM L-glutamine, 25 mM HEPES at pH 7.4. The minced tissues were washed and then incubated in a 37° C. shaker bath for 40 minutes with the buffer containing 0.1% collagenase and 0.1% BSA and bubbled with 95% O2 and 5% CO2. The tissues were passed twice through a 5 ml glass syringe to liberate the gastric glands, and then filtered through 200 mesh nylon. The filtered glands were centrifuged at 270 g for 5 minutes and washed twice by resuspension and centrifugation.
The washed guinea pig gastric glands prepared as above were resuspended in 25 ml of standard buffer containing 0.25 mg/ml of bacitracin. For binding studies, to 220 μl of gastric glands in triplicate tubes, 10 μl of buffer (for total binding) or gastrin (1 μM final concentration, for nonspecific binding) or test compound and 10 μl of ^125 I-gastrin (NEN, 2200 Ci/mmole, 25 pM final) or ^3 H-pentagastrin (NEN 22 Ci/mmole, 1 nM final) were added. The tubes were aerated with 95% O2 and 5% CO2 and capped. The reaction mixtures after incubation at 25° C. for 30 minutes were filtered under reduced pressure on glass G/F B filters (Whatman) and immediately washed further with 4×4 ml of standard buffer containing 0.1% BSA. The radioactivity on the filters was measured using a Beckman gamma 5500 for ^125 I-gastrin or liquid scintillation counting for ^3 H-pentagastrin.

The subject of another assay is anxiety (mice). The experiment in a line: Black/white exploration test (anxiolytic activity). It is filed as in vivo, mouse (male DBA2). An excerpt:
The black/white exploration test [Crawley et al. Pharmacology, Biochemistry and Behav. 13, 167 (1980)] is a simple animal model of anxiety. Rodents placed in a two compartment box which consists of a brightly lit, white painted side and a dimly lit, black painted side, display a marked preference for the black side of the apparatus. This behavior is caused by the aversive properties of the brightly lit, white painted section. Classical anxiolytic drugs [such as diazepam, see Crawley, supra] and novel anxiolytic drugs [such as 5HT3 antagonists, see Jones et al. Br. J. Pharm.
A. Naive male DBA2 mice (25-30) were housed on a reversed light/dark cycle and tested during the dark phase of the cycle under dim red light. The apparatus consisted of an open topped box (40 cm long×27 cm wide×27 cm high) divided into a small area (2/5) and a large area (3/5) by a partition that extended 20 cm above the walls. There was a 7.5×7.5 cm opening in the partition at floor level. The small compartment was painted black and the large compartment white. The floor of each compartment was marked into 9 cm squares. The white compartment was illuminated by a 100 W tungsten bulb 17 cm above the box and the black compartment by a similarly placed 60 W red bulb.
Animals that had been injected with drug or vehicle were placed individually into the centre of the white area and their behavior observed during a 5 minute period by remote video recording. Four behavioral parameters were recorded every minute: the number of exploratory rears in the white and black sections, the number of line crossings in the black and white sections, the number of transitions between the two sections and the time spent in the black and white sections. Animals were tested in treatment groups of 8-10 and vehicle controls were run on each test day. Data were analysed by ANOVA and Dunnetts test.

The compound `O=C(O)CN1C(=O)C(NC(=O)Nc2cccc3ccccc23)CCc2ccccc21` (centres unmarked) [Example 9, 2,3,4,5-Tetrahydro-3-{[[(1-naphthalenyl)amino]carbonyl]amino}-2-oxo-1H-1-benzazepine-1-acetic acid] registered an IC50 at CCK receptor (Pancreas) of 20000 nM. On to `CC(C)(C)OC(=O)CN1C(=O)C(NC(=O)Nc2cccc3ccccc23)CCc2ccccc21` (centres unmarked) [Example 8], for which the IC50 on CCK receptor (Pancreas) was found to be 960 nM; in assay [1] it was 148 nM; in assay [2], 480 nM. Regarding `Cc1ccc(NC(=O)NC2CCc3ccccc3N(CC(=O)N3CCN(C)CC3)C2=O)cc1` (centres unmarked) [Example 14, 1-Methyl-4-{[2,3,4,5-tetra-hydro-3-{[[(4-methylphenyl)amino}carbonyl]amino}-2-oxo-1H-1-benzazepin-1-yl]acetyl}piperazine], the IC50 on CCK receptor (Pancreas) came out at 13000 nM; in assay [1], 77000 nM. `CN1CCN(C(=O)CN2C(=O)C(NC(=O)Nc3cccc4ccccc34)CCc3ccccc32)CC1` (centres unmarked) [Example 10, 1-Methyl-4-{[2,3,4,5-tetra-hydro-3-{[[(1-naphthalenyl)amino]carbonyl]amino}-2-oxo-1H-1-benzazepin-1-yl]acetyl}piperazine] came in with a concentration for half-maximal inhibition (IC50) at CCK receptor (Pancreas) of 32000 nM.

Turning to `Cc1cccc(NC(=O)NC2CCc3ccccc3N(CC(=O)OC(C)(C)C)C2=O)c1` (centres unmarked) [Example 4], the IC50 at CCK receptor (Pancreas) came to 12 nM. On to `Cc1cccc(NC(=O)N[C@@H]2N=C(c3ccccc3)c3ccccc3N(C)C2=O)c1` [Compound B, (R)-N-(2,3-dihydro-1-methyl-2-oxo-5-phenyl-1H-1,4-benzodiazepin-3-yl)-N'-(3-methylphenyl)urea], for which the “Difference in time spent in the black and white side” value in the assay on anxiety (mice) (0.005 ug/kg) is “decreased the difference in time spent in the black and white side”. Besides, in the assay on anxiety (mice) (0.05 ug/kg), the “Preference for rearing in the black side” value was “abolished the preference for rearing in the black side”. In the assay with anxiety (mice) (black/white exploration test, mice), this compound had an Active dose range of 0.005 to 0.05 µg/kg. With `CC(C)(C)OC(=O)CN1C(=O)C(NC(=O)Nc2ccc(Cl)cc2)CCc2ccccc21` (centres unmarked) [Example 1, 1,1-Dimethylethyl 3-{[[(4-chlorophenyl)amino]carbonyl]amino}-2,3,4,5-tetrahydro-2-oxo-1H-1-benzazepine-1-acetic acid ester], the figures for the half-maximal inhibitory concentration (IC50) (at CCK receptor (Pancreas); in assay [1]; in assay [2]) were 350 nM, 180 nM and 120 nM, respectively. For the compound `Cc1ccc(NC(=O)NC2CCc3ccccc3N(CC(=O)N3CCCC3)C2=O)cc1` (centres unmarked) [Example 13, 1-{[2,3,4,5-Tetrahydro-3-{[[(4-methylphenyl)amino]carbonyl]amino}-2-oxo-1H-1-benzazepin-1-yl]aceyl}pyrrolidine], on CCK receptor (Pancreas), the IC50 was 1600 nM.

Take `c1cnc2c(c1)ccc1cccnc12` [o-phenanthroline, reference compound]: on CCK receptor (Pancreas), the “Effect on the 125I-CCK receptor binding assay” value is on record as “no effect”.

In the case of `O=S(=O)(F)Cc1ccccc1` [phenylmethane sulfonyl fluoride, reference compound], the “Effect on the 125I-CCK receptor binding assay” value on CCK receptor (Pancreas) was “no effect”. On to `Cc1cccc(NC(=O)NC2CCc3ccccc3N(CC(=O)O)C2=O)c1` (centres unmarked) [Example 5, 2,3,4,5-Tetrahydro-3-{[[(3-methylphenyl)aminol]carbonyl]amino}-2-oxo-1H-1-benzazepine-1-acetic acid], for which the IC50 at CCK receptor (Pancreas) amounted to 940 nM.

In turn, `COc1cccc(NC(=O)NC2CCc3ccccc3N(CC(=O)OC(C)(C)C)C2=O)c1` (centres unmarked) [Example 2] yielded an IC50 at CCK receptor (Pancreas) of 14000 nM. Still for that read-out and setting: then `Cc1cccc(NC(=O)NC2CCc3ccccc3N(CC(=O)N3CCCC3)C2=O)c1` (centres unmarked) [Example 6, 1-{[2,3,4,5-Tetrahydro-3-{[[(3-methylphenyl)amino]carbonyl]amino}-2-oxo-1H-1-benzazepin-1-yl]acetyl}pyrrolidine], with 80 nM.
